# Laboratory results reported in patent US3973021A, “2-[2-(5-Nitro-2-furyl)vinyl]-4-(phydroxyanilino)quinazoline as a bactericide” (Diamond Shamrock Corporation, priority 1975, dated 1976).
# How the values were obtained:
# Escherichia coli = assay: Bactericide test (agar streak, growth inhibition rated 0/50/100); type: cell-based
# Text: (§1) Test formulations were examined for bactericidal and/or bacteriostatic activity against the test organisms shown in Tables A and B. These organisms were chosen as being representative of commercially important pathogens affecting animal agriculture. The antibiotic chlortetracycline was chosen as a positive control, since it has a broad spectrum of activity against a large number of organisms, and its activity can be used for comparative purposes.
# (§2) Basic test formulations of the product of Examples I, II, III, and of chlortetracycline were prepared by dissolving 16 mg (0.016 g) in 2.0 ml of stock emulsifier solution (0.25% Triton X-155 in acetone by volume) and making each solution up to 50 ml with deionized water. The concentration of the test compound in the basic formulation was 320 ppm. Lower concentrations of the test compound were obtained by diluting the basic formulation with a 4% solution of the stock emulsifier in deionized water so that each dilution in the series differed only in test compound content.
# (§3) Nutrient-tryptic soy agar (NTA) consisting of 2.0% Difco Bactoagar 0.8% nutrient broth (Difco), and 0.5% tryptic soy broth (Difco) was prepared and sterilized by autoclaving. A 2 ml aliquot of each test formulation was added to 8 ml of molten NTA. This mixture was then plated in a sterile polystyrene petri dish (100 × 15 mm). After the agar was set, suspensions of each of the test organisms were simultaneously streaked onto the surface of the agar. The inoculated plates were incubated for 48 hr. at 28°C. The inhibition of growth of each organism was rated by visual comparison with the organism developing on non-treated agar. Growth inhibition reported as percent control was rated in three categories as follows: 0% control, growth equivalent to that on non-treated agar; 50% control, sparse development and separated colonies; 100% control, no visible growth or development of colonies.
# (§4) Test formulations of the product of Example IV were examined for bactericidal and/or bacteriostatic activity against the test organisms shown in Table B using the Bactericide Test described in Example V. The inhibition of organism growth with each diluted test formulation was rated visually by comparison with the organism developing on a non-treated control agar plate. Growth inhibition reported as percent control was rated in three categories as follows: 0% control, growth equivalent to that on non-treated agar; 50% control is sparse development and separated colonies; and 100% control, development of individual colonies was not apparent.
# Salmonella cholerasuis = assay: as above; type: cell-based
# Text: as §1, §2, §3, §4
# Salmonella gallinarum = assay: as above; type: cell-based; settings: Salmonella enterica
# Text: as §1, §2, §3, §4
# Staphylococcus aureus = assay: as above; type: cell-based
# Text: as §1, §2, §3, §4
# Streptococcus faecalis = assay: as above; type: cell-based; settings: Enterococcus faecalis
# Text: as §1, §2, §3, §4
# [1] = tested on: Bordetella bronchiseptica; assay: as above; type: cell-based
# Text: as §1, §2, §3
# [2] = tested on: Erysipelothrix rhusiopathiae; assay: as above; type: cell-based
# Text: as §1, §2, §3
# Salmonella typhimurium = assay: as above; type: cell-based; settings: Salmonella enterica
# Text: as §1, §2, §3
# Streptococcus agalactiae = assay: as above; type: cell-based
# Text: as §1, §2, §3
# Streptococcus group E = assay: as above; type: cell-based
# Text: as §1, §2, §3
# Vibrio coli = assay: as above; type: cell-based; settings: Campylobacter coli
# Text: as §1, §2, §3
# [3] = Example XII: 4 week chick feeding test, first set (Table VI); type: in vivo, broiler cross chicks
# Text: (§5) This example compares growth promotion activity of the product of Example I with other growth promotants at a concentration of 25 g/T in the Basal Ration described in Example VII. The other growth promotants include the product described in Example I of U.S. Pat. No. 3,542,784 -- Burch and quinoxaline-1,4-dioxide. Day old broiler cross chicks were weight equalized into groups of 8 chicks each, and four replicates of 8 chicks each were fed the experimental rations over a 4 week period.
# The growth promotion tests described in Example X were repeated with the additional testing the products of Examples II and III.
# [4] = Example XII: 4 week chick feeding test, repeat with five replicates (Table VII); type: in vivo, broiler cross chicks; settings: for Average 4 Week Performance: Feed Efficiency / Average 4 Week Performance: Gain / Improved Response Over Basal Ration: Feed Efficiency / Improved Response Over Basal Ration: Gain: 25g/T
# [5] = Example X: 4 week chick feeding test, 25 g/T; type: in vivo, broiler cross chicks
# Text: as §5
smiles,measurement,setting,value
"O=[N+]([O-])c1ccc(C=Cc2nc(Nc3ccccc3O)c3ccccc3n2)o1 [Example III, 2-[2-(5-nitro-furyl)vinyl]-4-(o-hydroxyanilino)quinazoline]",inhibition at 0.125 ppm,Escherichia coli; 0.125 ppm,0%
same,inhibition at 0.25 ppm,Escherichia coli; 0.25 ppm,0%
same,inhibition at 0.5 ppm,Escherichia coli; 0.5 ppm,0%
same,inhibition at 1 ppm,Escherichia coli; 1 ppm,0%
same,inhibition at 2 ppm,Escherichia coli; 2 ppm,0%
same,inhibition at 4 ppm,Escherichia coli; 4 ppm,0%
same,inhibition at 8 ppm,Escherichia coli; 8 ppm,0%
same,inhibition at 16 ppm,Escherichia coli; 16 ppm,0%
same,inhibition at 32 ppm,Escherichia coli; 32 ppm,0%
same,inhibition at 64 ppm,Escherichia coli; 64 ppm,0%
same,inhibition at 0.125 ppm,Salmonella cholerasuis; 0.125 ppm,0%
same,inhibition at 0.25 ppm,Salmonella cholerasuis; 0.25 ppm,0%
same,inhibition at 0.5 ppm,Salmonella cholerasuis; 0.5 ppm,0%
same,inhibition at 1 ppm,Salmonella cholerasuis; 1 ppm,0%
same,inhibition at 2 ppm,Salmonella cholerasuis; 2 ppm,0%
same,inhibition at 4 ppm,Salmonella cholerasuis; 4 ppm,50%
same,inhibition at 8 ppm,Salmonella cholerasuis; 8 ppm,50%
same,inhibition at 16 ppm,Salmonella cholerasuis; 16 ppm,100%
same,inhibition at 32 ppm,Salmonella cholerasuis; 32 ppm,100%
same,inhibition at 64 ppm,Salmonella cholerasuis; 64 ppm,100%
same,inhibition at 0.125 ppm,Salmonella gallinarum; 0.125 ppm,0%
same,inhibition at 0.25 ppm,Salmonella gallinarum; 0.25 ppm,0%
same,inhibition at 0.5 ppm,Salmonella gallinarum; 0.5 ppm,0%
same,inhibition at 1 ppm,Salmonella gallinarum; 1 ppm,0%
same,inhibition at 2 ppm,Salmonella gallinarum; 2 ppm,0%
same,inhibition at 4 ppm,Salmonella gallinarum; 4 ppm,50%
same,inhibition at 8 ppm,Salmonella gallinarum; 8 ppm,50%
same,inhibition at 16 ppm,Salmonella gallinarum; 16 ppm,100%
same,inhibition at 32 ppm,Salmonella gallinarum; 32 ppm,100%
same,inhibition at 64 ppm,Salmonella gallinarum; 64 ppm,100%
same,inhibition at 0.125 ppm,Staphylococcus aureus; 0.125 ppm,0%
same,inhibition at 0.25 ppm,Staphylococcus aureus; 0.25 ppm,0%
same,inhibition at 0.5 ppm,Staphylococcus aureus; 0.5 ppm,0%
same,inhibition at 1 ppm,Staphylococcus aureus; 1 ppm,0%
same,inhibition at 2 ppm,Staphylococcus aureus; 2 ppm,0%
same,inhibition at 4 ppm,Staphylococcus aureus; 4 ppm,0%
same,inhibition at 8 ppm,Staphylococcus aureus; 8 ppm,0%
same,inhibition at 16 ppm,Staphylococcus aureus; 16 ppm,0%
same,inhibition at 32 ppm,Staphylococcus aureus; 32 ppm,0%
same,inhibition at 64 ppm,Staphylococcus aureus; 64 ppm,0%
same,inhibition at 0.125 ppm,Streptococcus faecalis; 0.125 ppm,0%
same,inhibition at 0.25 ppm,Streptococcus faecalis; 0.25 ppm,0%
same,inhibition at 0.5 ppm,Streptococcus faecalis; 0.5 ppm,50%
same,inhibition at 1 ppm,Streptococcus faecalis; 1 ppm,100%
same,inhibition at 2 ppm,Streptococcus faecalis; 2 ppm,100%
same,inhibition at 4 ppm,Streptococcus faecalis; 4 ppm,100%
same,inhibition at 8 ppm,Streptococcus faecalis; 8 ppm,100%
same,inhibition at 16 ppm,Streptococcus faecalis; 16 ppm,100%
same,inhibition at 32 ppm,Streptococcus faecalis; 32 ppm,100%
same,inhibition at 64 ppm,Streptococcus faecalis; 64 ppm,100%
same,inhibition at 0.125 ppm,[1]; 0.125 ppm,100%
same,inhibition at 0.25 ppm,[1]; 0.25 ppm,100%
same,inhibition at 0.5 ppm,[1]; 0.5 ppm,100%
same,inhibition at 1 ppm,[1]; 1 ppm,100%
same,inhibition at 2 ppm,[1]; 2 ppm,100%
same,inhibition at 4 ppm,[1]; 4 ppm,100%
same,inhibition at 8 ppm,[1]; 8 ppm,100%
same,inhibition at 16 ppm,[1]; 16 ppm,100%
same,inhibition at 32 ppm,[1]; 32 ppm,100%
same,inhibition at 64 ppm,[1]; 64 ppm,100%
same,inhibition at 0.125 ppm,[2]; 0.125 ppm,100%
same,inhibition at 0.25 ppm,[2]; 0.25 ppm,100%
same,inhibition at 0.5 ppm,[2]; 0.5 ppm,100%
same,inhibition at 1 ppm,[2]; 1 ppm,100%
same,inhibition at 2 ppm,[2]; 2 ppm,100%
same,inhibition at 4 ppm,[2]; 4 ppm,100%
same,inhibition at 8 ppm,[2]; 8 ppm,100%
same,inhibition at 16 ppm,[2]; 16 ppm,100%
same,inhibition at 32 ppm,[2]; 32 ppm,100%
same,inhibition at 64 ppm,[2]; 64 ppm,100%
same,inhibition at 0.125 ppm,Salmonella typhimurium; 0.125 ppm,0%
same,inhibition at 0.25 ppm,Salmonella typhimurium; 0.25 ppm,0%
same,inhibition at 0.5 ppm,Salmonella typhimurium; 0.5 ppm,0%
same,inhibition at 1 ppm,Salmonella typhimurium; 1 ppm,0%
same,inhibition at 2 ppm,Salmonella typhimurium; 2 ppm,0%
same,inhibition at 4 ppm,Salmonella typhimurium; 4 ppm,0%
same,inhibition at 8 ppm,Salmonella typhimurium; 8 ppm,0%
same,inhibition at 16 ppm,Salmonella typhimurium; 16 ppm,0%
same,inhibition at 32 ppm,Salmonella typhimurium; 32 ppm,0%
same,inhibition at 64 ppm,Salmonella typhimurium; 64 ppm,0%
same,inhibition at 0.125 ppm,Streptococcus agalactiae; 0.125 ppm,100%
same,inhibition at 0.25 ppm,Streptococcus agalactiae; 0.25 ppm,100%
same,inhibition at 0.5 ppm,Streptococcus agalactiae; 0.5 ppm,100%
same,inhibition at 1 ppm,Streptococcus agalactiae; 1 ppm,100%
same,inhibition at 2 ppm,Streptococcus agalactiae; 2 ppm,100%
same,inhibition at 4 ppm,Streptococcus agalactiae; 4 ppm,100%
same,inhibition at 8 ppm,Streptococcus agalactiae; 8 ppm,100%
same,inhibition at 16 ppm,Streptococcus agalactiae; 16 ppm,100%
same,inhibition at 32 ppm,Streptococcus agalactiae; 32 ppm,100%
same,inhibition at 64 ppm,Streptococcus agalactiae; 64 ppm,100%
same,inhibition at 0.125 ppm,Streptococcus group E; 0.125 ppm,100%
same,inhibition at 0.25 ppm,Streptococcus group E; 0.25 ppm,100%
same,inhibition at 0.5 ppm,Streptococcus group E; 0.5 ppm,100%
same,inhibition at 1 ppm,Streptococcus group E; 1 ppm,100%
same,inhibition at 2 ppm,Streptococcus group E; 2 ppm,100%
same,inhibition at 4 ppm,Streptococcus group E; 4 ppm,100%
same,inhibition at 8 ppm,Streptococcus group E; 8 ppm,100%
same,inhibition at 16 ppm,Streptococcus group E; 16 ppm,100%
same,inhibition at 32 ppm,Streptococcus group E; 32 ppm,100%
same,inhibition at 64 ppm,Streptococcus group E; 64 ppm,100%
same,inhibition at 0.125 ppm,Vibrio coli; 0.125 ppm,100%
same,inhibition at 0.25 ppm,Vibrio coli; 0.25 ppm,100%
same,inhibition at 0.5 ppm,Vibrio coli; 0.5 ppm,100%
same,inhibition at 1 ppm,Vibrio coli; 1 ppm,100%
same,inhibition at 2 ppm,Vibrio coli; 2 ppm,100%
same,inhibition at 4 ppm,Vibrio coli; 4 ppm,100%
same,inhibition at 8 ppm,Vibrio coli; 8 ppm,100%
same,inhibition at 16 ppm,Vibrio coli; 16 ppm,100%
same,inhibition at 32 ppm,Vibrio coli; 32 ppm,100%
same,inhibition at 64 ppm,Vibrio coli; 64 ppm,100%
same,Average 4 Week Performance: Feed Efficiency,[3]; 25g/T,1.597
same,Average 4 Week Performance: Gain,[3]; 25g/T,766.9 g
same,Improved Response Over Basal Ration: Feed Efficiency,[3]; 25g/T,+2.3%
same,Improved Response Over Basal Ration: Gain,[3]; 25g/T,+3.1%
same,Average 4 Week Performance: Feed Efficiency,[4],1.669
same,Average 4 Week Performance: Gain,[4],723.7 g
same,Improved Response Over Basal Ration: Feed Efficiency,[4],+6.5%
same,Improved Response Over Basal Ration: Gain,[4],+6.0%
"O=[N+]([O-])c1ccc(-c2nc(Nc3ccc(O)cc3)c3ccccc3n2)o1 [Example III of U.S. 3,542,784 - Burch, 2-(5-nitro-2-furyl)-4-(p-hydroxyaniline)quinazoline, reference compound]",Average 4 Week Performance: Feed Efficiency,[5]; 25g/T,1.525
same,Average 4 Week Performance: Gain,[5]; 25g/T,809.5 g
same,Improved Response Over Basal Ration: Feed Efficiency,[5]; 25g/T,+1.7%
same,Improved Response Over Basal Ration: Gain,[5]; 25g/T,+5.8%
same,growth rate and feed efficiency response (in words),"[5]; 25 g/T, Table IV","appeared to give a growth response in this test but with a slight, it any, effect on feed efficiency"
same,growth rate / feed efficiency response (in words),[3]; Table VI,essentially no effect on growth rate or feed efficiency
same,Average 4 Week Performance: Feed Efficiency,[4],1.737
same,Average 4 Week Performance: Gain,[4],668.1 g
same,Improved Response Over Basal Ration: Feed Efficiency,[4],+2.7%
same,Improved Response Over Basal Ration: Gain,[4],-2.1%
same,growth rate / feed efficiency response (in words),[4]; Table VII,essentially no effect on growth rate or feed efficiency
